Values quoted from earlier work in publication PMC8198792, “Prediction of Anticancer Peptides with High Efficacy and Low Toxicity by Hybrid Model Based on 3D Structure of Peptides” (International Journal of Molecular Sciences, 2021).
Where two headings read alike, the source gives them in different places.

What was measured:
erythrocytes = conditions: cited from earlier work
Excerpt: Supplement ijms-22-05630-s001.zip/Hemloytic Peptides(seguence).xlsx, sheet "HD1" | column: Activity || Supplement ijms-22-05630-s001.zip/Hemloytic Peptides(seguence).xlsx, sheet "HD2" | column: Activity || Supplement ijms-22-05630-s001.zip/Hemloytic Peptides(seguence).xlsx, sheet "HD3" | column: Activity

cancer cell lines = test system: cancer cell lines; set-up: method as in 6 sources, ref CancerPPD [45] and SATPdb ||| ref CancerPPD/SATPdb ||| ref CancerPPD, SATPdb, Swissprot (PDB) ||| ref CancerPPD/SATPdb/Swissprot(PDB) ||| ref CancerPPD / SATPdb ||| ...; conditions: cited from earlier work
Excerpt: Supplement ijms-22-05630-s001.zip/ACPs(seguence).xlsx, sheet "D1" | column: Activity || Supplement ijms-22-05630-s001.zip/ACPs(seguence).xlsx, sheet "D2" | column: Activity || Supplement ijms-22-05630-s001.zip/ACPs(seguence).xlsx, sheet "D3" | column: Activity || (+ 2 further places)

[1] = ACPs dataset D5 (sheet "D5"), label 1 = ACP (positive set), 0 = non-ACP (negative set), ref CancerPPD [45] and SATPdb
[2] = ACPs dataset sheet D2, 1 = ACP (CancerPPD/SATPdb ID), 0 = non-ACP (Swissprot/PDB ID), ref CancerPPD, SATPdb, Swissprot (PDB)
[3] = ACPs dataset D3 (supplement sheet "D3"), 1 = ACP, 0 = non-ACP, ref CancerPPD [45] and SATPdb
[4] = ACPs dataset D4 (sheet "D4"), label 1 = ACP (CancerPPD ID), 0 = non-ACP (non-anticancer AMP, SATPdb ID), ref CancerPPD [45] and SATPdb
[5] = ACPs dataset D1, label 1 = ACP, 0 = non-ACP (non-anticancer AMPs from SATPdb), ref CancerPPD/SATPdb
[6] = ACPs dataset D2 (supplement ACPs(seguence).xlsx, sheet D2), dataset label 1/0 (ACP / non-ACP), entries identified by Swissprot(PDB ID), ref CancerPPD/SATPdb/Swissprot(PDB)
[7] = ACPs dataset D4 (sheet "D4"), label 1 = ACP, 0 = non-ACP, ref CancerPPD / SATPdb
[8] = ACPs dataset D5, sheet "D5", label 1 = ACP, 0 = non-ACP, ref CancerPPD [45] and SATPdb
[9] = ACPs dataset D1, 1 = ACP (positive), 0 = non-ACP (negative), label taken from databases, ref CancerPPD [45] and SATPdb
[10] = ACPs dataset D4 (sheet "D4"), label 1 = ACP, experimentally validated ACPs, ref CancerPPD [45] and SATPdb
[11] = ACPs dataset D5 (sheet "D5"), label 1 = ACP (positive set), sequences with CancerPPD/SATPdb ID, ref CancerPPD, SATPdb
[12] = ACPs dataset D3 (sheet "D3"), label 1 = ACP, 0 = non-ACP, ref CancerPPD/SATPdb

RRGWALRLVLAY [satpdb14852]
Activity (erythrocytes): 1
Activity (dataset HD1, hemolytic 1 / non-hemolytic 0) (erythrocytes): 1

KWKSFLRTFKSPVRTVFHTALKPISS [satpdb15241]
Activity (erythrocytes): 1
Activity (dataset HD1, hemolytic 1 / non-hemolytic 0) (erythrocytes): 1

GLFDIIKKIAESFKFSEAIKKIIDFLG [satpdb13437]
Activity (erythrocytes): 1
Activity (dataset HD1, hemolytic 1 / non-hemolytic 0) (erythrocytes): 1

KSLVRRWRSRW [satpdb18185]
Activity (erythrocytes): 0

SYSMEHFRWGKPV [2IQP model - B 1-13]
Activity (cancer cell lines; [1]): 0
Activity (cancer cell lines; [2]): 0

GMWSKILGHLKR [compound 3637]
Activity (cancer cell lines; [3]): 1
Activity (cancer cell lines; [4]): 1
Activity (cancer cell lines; [1]): 1

GSIPCAESCVYIPCITGIAGCSCKNKVCYYN [satpdb12154]
Activity (cancer cell lines; [5]): 0
Activity (cancer cell lines; [4]): 0

DKLIGSCVWGAVNYTSNCNAECKRRGYKGGHCGSFANVNCWCET [1OZZ NMR - A 1-44]
Activity (cancer cell lines; [6]): 0
Activity (cancer cell lines; [1]): 0

KRRHWFPLSFQEFLEQLRRFRDQLPFP [satpdb12966]
Activity (cancer cell lines; [5]): 0
Activity (cancer cell lines; [7]): 0

KWKSFLKTFKSlKKTVLHTLLKAISS [compound 3769]
Activity (cancer cell lines; [3]): 1
Activity (cancer cell lines; [4]): 1
Activity (cancer cell lines; [1]): 1

ASSGWVCTLTIECGTVICACR [satpdb11450]
Activity (cancer cell lines; [5]): 0
Activity (cancer cell lines; [4]): 0

VRRFPWWWAFLRR [satpdb11783]
Activity (cancer cell lines; [3]): 0
Activity (cancer cell lines; [7]): 0
Activity (cancer cell lines; [8]): 0

ENFAGGCATGYLRTADGRCKPTF [1HRL NMR - A 1-23]
Activity (cancer cell lines; [1]): 0
Activity (cancer cell lines; [2]): 0

KTCENLADTFRGPCFATSNC [compound 4449]
Activity (cancer cell lines; [9]): 1
Activity (cancer cell lines; [10]): 1
Activity (cancer cell lines; [11]): 1
Activity (cancer cell lines; [2]): 1

KWKSFlKTFKSLKKTVLHTLLKAISS [compound 3768]
Activity (cancer cell lines; [3]): 1
Activity (cancer cell lines; [4]): 1
Activity (cancer cell lines; [1]): 1

FLPIIASVAANVFSKIFCAISKKC [satpdb10458]
Activity (cancer cell lines; [9]): 0
Activity (cancer cell lines; [4]): 0

FAKKLAKKLKKLAKKLAKLAKKL [compound 1914]
Activity (cancer cell lines; [3]): 1
Activity (cancer cell lines; [10]): 1
Activity (cancer cell lines; [11]): 1

IKLSPETKDNLKKVLKGAIKGAIAVAKMV [satpdb12617]
Activity (cancer cell lines; [12]): 0
Activity (cancer cell lines; [7]): 0
Activity (cancer cell lines; [8]): 0

GMWSKILGKLIR [compound 3638]
Activity (cancer cell lines; [3]): 1
Activity (cancer cell lines; [4]): 1
Activity (cancer cell lines; [1]): 1

GIWDTIKSMGKVFAGKILQN [satpdb10030]
Activity (cancer cell lines; [9]): 0
Activity (cancer cell lines; [4]): 0

RRWCFRVCYRGRFCYRKCR [satpdb14798]
Activity (cancer cell lines; [12]): 0
Activity (cancer cell lines; [7]): 0
Activity (cancer cell lines; [8]): 0

GVLDTFKDVAIGVAKGAGTGVLKALLCKLDKSC [satpdb13223]
Activity (cancer cell lines; [5]): 0
Activity (cancer cell lines; [7]): 0

NYQWVPYQGRVPYPRGGLLkLLKklLKKLlKL [compound 3344]
Activity (cancer cell lines; [3]): 1
Activity (cancer cell lines; [4]): 1
Activity (cancer cell lines; [1]): 1

FAKKLAKLAKKLAKLAL [compound 1787]
Activity (cancer cell lines; [3]): 1
Activity (cancer cell lines; [10]): 1
Activity (cancer cell lines; [11]): 1

KLALKLALKAlkAALKLA [satpdb10294]
Activity (cancer cell lines; [9]): 0
Activity (cancer cell lines; [4]): 0

MESQSNAVQLMLGFGTFVLMLLGLVVELIKNSNKK [satpdb12625]
Activity (cancer cell lines; [5]): 0
Activity (cancer cell lines; [4]): 0

GLFAVIKKVASVIKKL [compound 4111]
Activity (cancer cell lines; [3]): 1
Activity (cancer cell lines; [4]): 1
Activity (cancer cell lines; [1]): 1

MFSPILSLEIILALATLQSVFAQPVICTTVGSAAEGS [satpdb11835]
Activity (cancer cell lines; [9]): 1
Activity (cancer cell lines; [10]): 1
Activity (cancer cell lines; [11]): 1
Activity (cancer cell lines; [2]): 1

FLSSIGKILGNLL [satpdb11843]
Activity (cancer cell lines; [5]): 0
Activity (cancer cell lines; [4]): 0

SSTSPHRPRFS [satpdb14979]
Activity (cancer cell lines; [9]): 1
Activity (cancer cell lines; [10]): 1
Activity (cancer cell lines; [11]): 1
Activity (cancer cell lines; [2]): 1

IWLTALKFLGKNLGKHLAKQQLAKL [6CL3 NMR - A 1-25]
Activity (cancer cell lines; [1]): 0
Activity (cancer cell lines; [2]): 0

GFLDTFKNLALNAAKSAGVSVLNSLSCKLFKTC [satpdb12796]
Activity (cancer cell lines; [5]): 0
Activity (cancer cell lines; [7]): 0

FFGTALKIAANVLPTAICKILKKC [satpdb13355]
Activity (cancer cell lines; [5]): 0
Activity (cancer cell lines; [7]): 0

AAPFLECQGRQGTCHFFAN [satpdb18859]
Activity (cancer cell lines; [9]): 1
Activity (cancer cell lines; [10]): 1
Activity (cancer cell lines; [11]): 1
Activity (cancer cell lines; [2]): 1

DLWIRETLTSPKSLTG [satpdb21617]
Activity (cancer cell lines; [9]): 1
Activity (cancer cell lines; [10]): 1
Activity (cancer cell lines; [11]): 1
Activity (cancer cell lines; [2]): 1

PPPEE [compound 1426]
Activity (cancer cell lines; [3]): 1
Activity (cancer cell lines; [4]): 1
Activity (cancer cell lines; [1]): 1

KWKLFAKIGIGKFLHLAKKF [compound 1837]
Activity (cancer cell lines; [3]): 1
Activity (cancer cell lines; [4]): 1
Activity (cancer cell lines; [1]): 1

LCYCRRRFCGCV [satpdb12860]
Activity (cancer cell lines; [5]): 0
Activity (cancer cell lines; [7]): 0

FLPLIGKILGTILGK [satpdb11777]
Activity (cancer cell lines; [5]): 0
Activity (cancer cell lines; [4]): 0

YGRKKRRQRRRREADFFWSLCTADMS [compound 3718]
Activity (cancer cell lines; [9]): 1
Activity (cancer cell lines; [10]): 1
Activity (cancer cell lines; [11]): 1
Activity (cancer cell lines; [2]): 1

TTITGKKCQSWAAMFPHRHSKT [satpdb18336]
Activity (cancer cell lines; [9]): 1
Activity (cancer cell lines; [10]): 1
Activity (cancer cell lines; [11]): 1
Activity (cancer cell lines; [2]): 1

MKNAKQEHFELDQEWVELMVEAKEANISPEEIRKYLLLNKKSAHPGPAARSHTVNPF [1B0N X-ray 1.90,B,1-57]
Activity (cancer cell lines; [6]): 0
Activity (cancer cell lines; [8]): 0

ALWKTLLKKVLKA [satpdb11986]
Activity (cancer cell lines; [12]): 0

GILDKLKEFGISAARGVAQSLLNTTASCKLAKTC [satpdb13132]
Activity (cancer cell lines; [5]): 0
Activity (cancer cell lines; [7]): 0

RICPRIWMECKRDSDCMAQCICVDGHCG [1F2S X-ray 1.79 I 1-28]
Activity (cancer cell lines; [1]): 0
Activity (cancer cell lines; [2]): 0

FLPLIASVAANLAPKIICKITKTC [satpdb12152]
Activity (cancer cell lines; [5]): 0
Activity (cancer cell lines; [4]): 0

EDMNQKLFDLRGKFKRPPLRRVRMSADAML [satpdb19871]
Activity (cancer cell lines; [9]): 1
Activity (cancer cell lines; [10]): 1
Activity (cancer cell lines; [11]): 1
Activity (cancer cell lines; [2]): 1

AEDCVGRKACTREWYPVCGSDGVTYSNPCNFSAQQEQCDPNITIAHMGEC [2N71 NMR - A 1-50]
Activity (cancer cell lines; [6]): 0
Activity (cancer cell lines; [1]): 0

GLFSKFNKKKIKSGLIKIIKTAGKEAGLEALRTGIDVIGCKIKGEC [satpdb11080]
Activity (cancer cell lines; [9]): 0
Activity (cancer cell lines; [4]): 0

FLPVIAGLAAKVLPKLFCAITKKC [satpdb12195]
Activity (cancer cell lines; [5]): 0
Activity (cancer cell lines; [4]): 0

KWKLFKKIPKFLHLA [compound 1134]
Activity (cancer cell lines; [3]): 1
Activity (cancer cell lines; [4]): 1
Activity (cancer cell lines; [1]): 1

MSGELLNAALLSFGLIFVGWALGALLLKIQGAEE [4OGQ X-ray 2.50，F，1-34]
Activity (cancer cell lines; [1]): 0
Activity (cancer cell lines; [2]): 0

KWFKKIPKFLHLLKKF [compound 1120]
Activity (cancer cell lines; [3]): 1
Activity (cancer cell lines; [4]): 1
Activity (cancer cell lines; [1]): 1

GIINTLQKYYSRVRGGRSAVLSSLPKEEQIGKSSTRGRKSSRRKK [satpdb11018]
Activity (cancer cell lines; [9]): 0
Activity (cancer cell lines; [4]): 0

PAARKAARWAWRMLKKGA [compound 1614]
Activity (cancer cell lines; [9]): 1
Activity (cancer cell lines; [10]): 1
Activity (cancer cell lines; [11]): 1
Activity (cancer cell lines; [2]): 1

KWKKLLKKPLKLLKKLL [satpdb14017]
Activity (cancer cell lines; [12]): 0
Activity (cancer cell lines; [7]): 0
Activity (cancer cell lines; [8]): 0

KRRREKQRPCDKPRR [satpdb15198]
Activity (cancer cell lines; [9]): 1
Activity (cancer cell lines; [10]): 1
Activity (cancer cell lines; [11]): 1
Activity (cancer cell lines; [2]): 1

FLKDHRISTFKNWPF [satpdb15356]
Activity (cancer cell lines; [9]): 1
Activity (cancer cell lines; [10]): 1
Activity (cancer cell lines; [11]): 1
Activity (cancer cell lines; [2]): 1

TKPRKTKPRKTKPRKTKPR [compound 5055]
Activity (cancer cell lines; [9]): 1
Activity (cancer cell lines; [10]): 1
Activity (cancer cell lines; [11]): 1
Activity (cancer cell lines; [2]): 1

GLPRKILAAIAKKK [satpdb14133]
Activity (cancer cell lines; [12]): 0
Activity (cancer cell lines; [7]): 0
Activity (cancer cell lines; [8]): 0

WNPFKELERAGQRVRDAIISAAPAVATVGQAAAIARG [satpdb12131]
Activity (cancer cell lines; [5]): 0
Activity (cancer cell lines; [4]): 0
